According to patent US20130225641A1, “ANTICANCER COMPOUNDS AND PREPARATION METHODS THEREOF” (priority 2010, published 2013):

Assays:
[1] = MTT cytotoxicity, MEF normal mouse fibroblast; type: cell-based; settings: MEF normal mouse fibroblasts; MEF, Normal mouse fibroblast; 72 hrs, MTT; read-out: LC50
Method: [Worded in the source for another organism; this organism is reported under the same test.] (§1) The cytotoxicity of ZTP and ZTQ was analyzed by using human tumor cell lines. Human tumor cell lines were purchased from ATCC and NCI, and cultured in DMEM medium containing 10% FBS at 37° C. in 5% CO2 in an incubator. The cells grown to confluence were used for cytotoxicity analysis. The cells were digested with trypsin, washed with the culture medium, and then counted. 33 tumor cell lines were cultured. The cells were seeded at a density of 3000-6000 cells/well in a 96-well plate and incubated for 16-24 hrs. Then, various concentrations of ZTP or ZTQ dissolved in DMSO were added, and cultured for 72 hrs. The drug-treated cells and control cells were analyzed by MTT.

MEF = experiment: MTT cytotoxicity, MEF normal mouse fibroblast; type: cell-based; settings: cells still grow well at a concentration up to 30 μm
Method: [Worded in the source for another organism; this organism is reported under the same test.] as §1

Widr = experiment: MTT cytotoxicity, Widr; type: cell-based; settings: Homo sapiens, Colonic, 72 hrs, read-out: LC50 (the source's name)
Method: as §1

Mid PaCa-2 = experiment: MTT cytotoxicity, Mid PaCa-2; type: cell-based; settings: Homo sapiens, Mid PaCa-2, Pancreatic, 72 hrs, read-out: LC50 (the source's name)
Method: as §1

[2] = test system: human liver cancer cells (HepG3B); experiment: Transplantation model of human liver cancer (HepG3B) in nude mice; type: in vivo, nude mice (nu/nu); settings: HepG3B subcutaneous in nude mice; oral daily 5 days/week, 3 weeks; ZTP 30 mg/kg, ZTQ 60 mg/kg; lower = stronger
Method: (§2) T-cell deficient nude mice (nu/nu) of 6 weeks old were purchased from Charles River Laboratory, and housed and treated in a sterile environment following Institutional Animal Care & Use Committee Program. 48 mice were respectively subcutaneously inoculated on ribbed belly with 5×10^6 human liver cancer cells (HepG3B), human lung caner cells (NCI-H23), and human colon cancer cells (HCT-116) suspended in 0.2 ml HBSS/matrigel (50:50, V/V). When the tumor grew to have an average diameter of 7-8 mm and a volume of about 100-200 mm^3, 24 mice were picked up, and assigned to treatment groups (16 animals/2 groups), and a control group (8 animals). The 2 treatment groups were administered with the compounds ZTP and ZTQ dissolved in 15% Captsol respectively at a dose of 30 mg/kg and 60 mg/kg, and the control group only received an excipient (15% Captsol).
(§3) The same number of mice of each type was assigned to the control group and the treatment groups with the compounds ZTP and ZTQ respectively.
(§4) The dose schedule of the test compounds in the tumor transplanted nude mice was as follows: the compounds ZTP and ZTQ dissolved in 15% Captsol were daily orally administered as a 200 μl solution containing 0.75 mg of ZTP and 1.5 mg of ZTQ for 5 days/week over 3 consecutive weeks, followed by one-week break; and the control group was only administered with 200 μl of the placebo (15% Captsol) for 3 weeks, followed by 1 week of break. The two groups of animals were housed separately, and allowed to free access to food.
(§5) Evaluation of antitumor effect: the tumor size was measured every 3 or 4 days. The tumor volume was calculated using the equation below: […], in which a denotes the width (the shorter diameter), and b denotes the length (the longer diameter). Relative tumor volume (RTV) of each tumor refers to the ratio of the volume at a specified time to that at the beginning of the treatment. The average RTV for each treatment group was calculated. The antitumor activity was determined by calculating the tumor growth inhibition using a formula below. […]

SK-MEL-5 = experiment: MTT cytotoxicity, SK-MEL-5; type: cell-based; settings: Homo sapiens, SK-MEL-5, Skin (melanoma), 72 hrs, read-out: LC50 (the source's name)
Method: as §1

CCL-247 = experiment: MTT cytotoxicity, CCL-247; type: cell-based; settings: Homo sapiens, CCL-247, Colonic, 72 hrs, read-out: LC50 (the source's name)
Method: as §1

[3] = Acute toxicity studies in mice; type: in vivo; settings: for death of test mice: single dose of 500 mg/kg and divided doses of 100 mg/kg
Text: After tests, the mice were sacrificed for pathological analysis.

MCF-7 = experiment: MTT cytotoxicity, MCF-7; type: cell-based; settings: Homo sapiens, MCF7, MCF-7, Breast, 72 hrs, read-out: LC50 (the source's name)
Method: as §1

[4] = test system: human colon cancer cells (HCT-116); experiment: Transplantation model of human colon cancer (HCT-116) in nude mice; type: in vivo, nude mice (nu/nu); settings: HCT-116 subcutaneous in nude mice; oral daily 5 days/week, 3 weeks; ZTP 30 mg/kg, ZTQ 60 mg/kg; lower = stronger
Method: as §2, §3, §4, §5

HCT-116 = experiment: MTT cytotoxicity, HCT-116; type: cell-based; settings: Homo sapiens, HCT-116, Colonic, 72 hrs, read-out: LC50 (the source's name)
Method: as §1

[5] = Side effects in tumor transplanted nude mice; type: in vivo, nude mice (nu/nu); settings: during treatment
Method: as §2, §4

[6] = divided doses of 100 mg/kg, observed 4 weeks
[7] = single dose of 500 mg/kg, observed 1 week

SMILES	CC50 at 72 h [1] [nM]	susceptibility of normal mouse fibroblasts (MEFs) (MEF)	CC50 (Widr) [nM]	CC50 (Mid PaCa-2) [nM]	TGI (T/C×100) [2] [%]	CC50 (SK-MEL-5) [nM]	CC50 (CCL-247) [nM]	acute toxicity [3, 6]	death of test mice [3]	acute toxicity [3, 7]	CC50 (MCF-7) [nM]	TGI (T/C×100) [4] [%]	CC50 (HCT-116) [nM]	side effect, including the change in body weight [5]
CNC(=O)c1cc(Oc2ccc(NC(=S)Nc3ccc(Cl)c(C(F)(F)F)c3)cc2)ccn1 [ZTP, N-[4-chloro-3-(trifluoromethyl)phenyl]-[4-(N-methyl-formamide)(4-pyridyloxy)phenyl]-thiourea]	> 30000	insusceptible	950	1250	13	1990	2410	no obvious toxicity	no death occurs	no obvious toxicity	2210	29.2	870	–
CNC(=O)c1cc(Sc2ccc(NC(=S)Nc3ccc(Cl)c(C(F)(F)F)c3)cc2)ccn1 [ZTQ, N-[4-chloro-3-(trifluoromethyl)phenyl]-[4-(N-methyl-formamide)(4-pyridylthio)phenyl]-thiourea]	> 30000	insusceptible	810	910	1.75	1540	1700	no obvious toxicity	no death occurs	no obvious toxicity	1700	6.45	760	no obvious side effect
